According to patent US6407103B2, “Indeno [1,2-c] pyrazol-4-ones and their uses” (Bristol-Myers Squibb Pharma Company, priority 1998, dated 2002):
Structures can show the parent of a compound that is named as a salt.

For `COC[C@H]1CCCN1NC(=O)Nc1cccc2c1C(=O)c1c-2n[nH]c1-c1ccc(C(=O)N2CCN(C(=O)OC(C)(C)C)CC2)s1` (as salt: TFA) [Example CCV, 3-(5-(4-(t-butoxycarbonyl)piperazinocarbonyl)-2-thienyl)-5-(2(R)-(methoxymethyl)pyrrolidinocarbamoylamino)indeno[1,2-c]pyrazol-4-one], the melting point was > 300 °C. In the case of `NC1CCCC(C(=O)N2CCC(c3[nH]nc4c3C(=O)c3c(NC(=O)NN5CCOCC5)cccc3-4)CC2)C1` (stereo not shown) (as salt: TFA) [Example CCXC, 3-(1-(3-aminocyclohexylcarbonyl)piperidin-4-yl)-5-(morpholinocarbamoylamino)indeno[1,2-c]pyrazol-4-one], the melting point is reported as 201 °C. For `CN(C)C1CCCC(C(=O)N2CCC(c3[nH]nc4c3C(=O)c3c(NC(=O)NN5CCOCC5)cccc3-4)CC2)C1` (stereo not shown) (as salt: TFA) [Example CCXCI, 3-(1-(3-(dimethylamino)cyclohexylcarbonyl)piperidin-4-yl)-5-(morpholinocarbamoylamino)indeno[1,2-c]pyrazol-4-one], the melting point was 153 °C. For `CO[C@H]1CC[C@H](C(=O)N2CCC(c3[nH]nc4c3C(=O)c3c(NC(=O)NN5CCOCC5)cccc3-4)CC2)CC1` (as salt: TFA) [Example CCXCII, 3-(1-(trans-4-methoxycyclohexylcarbonyl)piperidin-4-yl)-5-(morpholinocarbamoylamino)indeno[1,2-c]pyrazol-4-one], the melting point was 246 °C. Work on `CO[C@H]1CC[C@@H](C(=O)N2CCC(c3[nH]nc4c3C(=O)c3c(NC(=O)NN5CCOCC5)cccc3-4)CC2)CC1` (as salt: TFA) [Example CCXCIII, 3-(1-(cis-4-methoxycyclohexylcarbonyl)piperidin-4-yl)-5-(morpholinocarbamoylamino)indeno[1,2-c]pyrazol-4-one] yielded a melting point of 178 °C. For `Nc1ccc(CC(=O)N2CCC(c3[nH]nc4c3C(=O)c3c(NC(=O)NN5CCOCC5)cccc3-4)CC2)cc1` (as salt: TFA) [Example CCXCIV, 3-(1-(4-aminobenzylcarbonyl)piperidin-4-yl)-5-(morpholinocarbamoylamino)indeno[1,2-c]pyrazol-4-one], the melting point was 177 °C. Molecule `CN(C)c1ccc(CC(=O)N2CCC(c3[nH]nc4c3C(=O)c3c(NC(=O)NN5CCOCC5)cccc3-4)CC2)cc1` (as salt: TFA) [Example CCXCV, 3-(1-(4-(dimethylamino)benzylcarbonyl)piperidin-4-yl)-5-(morpholinocarbamoylamino)indeno[1,2-c]pyrazol-4-one] has a melting point of 107 °C. Work on `Nc1ccc(C(=O)N2CCC(c3[nH]nc4c3C(=O)c3c(NC(=O)NN5CCOCC5)cccc3-4)CC2)cc1` (as salt: TFA) [Example CCXCVII, 3-(1-(4-aminophenylcarbonyl)piperidin-4-yl)-5-(morpholinocarbamoylamino)indeno[1,2-c]pyrazol-4-one] yielded a melting point of 198 °C. With `CN(C)c1ccc(C(=O)N2CCC(c3[nH]nc4c3C(=O)c3c(NC(=O)NN5CCOCC5)cccc3-4)CC2)cc1` (as salt: TFA) [Example CCXCVIII, 3-(1-(4-(dimethylamino)phenylcarbonyl)piperidin-4-yl)-5-(morpholinocarbamoylamino)indeno[1,2-c]pyrazol-4-one] the melting point was 189 °C. Work on `O=C(Nc1cccc2c1C(=O)c1c-2n[nH]c1-c1ccc(N2CCNCC2)cc1)NN1CCOCC1` (as salt: TFA) [Example CCXI, 3-(4-piperazinophenyl)-5-(morpholinocarbamoylamino)indeno[1,2-c]pyrazol-4-one] yielded a melting point of 263 °C. With `NC(=O)Nc1cccc2c1C(=O)c1c-2n[nH]c1-c1ccc(N2CCNCC2)cc1` (as salt: TFA) [Example CCXII, 3-(4-piperazinophenyl)-5-(carbamoylamino)indeno[1,2-c]pyrazol-4-one] the melting point was 257 °C. Molecule `NNC(=O)Nc1cccc2c1C(=O)c1c-2n[nH]c1-c1ccc(N2CCNCC2)cc1` (as salt: TFA) [Example CCXIII, 3-(4-piperazinophenyl)-5-(aminocarbamoylamino)indeno[1,2-c]pyrazol-4-one] has a melting point of 257 °C. `CN(C)CC(=O)Nc1cccc2c1C(=O)c1c-2n[nH]c1-c1ccc(N2CCNCC2)cc1` (as salt: TFA) [Example CCXIV, 3-(4-piperazinophenyl)-5-((N,N-dimethylamino)acetamido)indeno[1,2-c]pyrazol-4-one] showed a melting point of 243 °C. Work on `CCN1CCN(c2ccc(-c3[nH]nc4c3C(=O)c3c(NC(=O)NN5CCOCC5)cccc3-4)cc2)CC1` (as salt: TFA) [Example CCXIX, 3-(4-(4-ethylpiperazino)phenyl)-5-(morpholinocarbamoylamino)indeno[1,2-c]pyrazol-4-one] yielded a melting point of 245 °C. Molecule `CN(C)C1CCN(c2ccc(-c3[nH]nc4c3C(=O)c3c(NC(=O)NN5CCOCC5)cccc3-4)cc2)CC1` (as salt: TFA) [Example CCXLVIII, 3-(4-(4-(N,N-dimethylamino)piperidino)phenyl)-5-(morpholinocarbamoylamino)indeno[1,2-c]pyrazol-4-one] has a melting point of 258 °C. With `O=C(CN1CCOCC1)Nc1cccc2c1C(=O)c1c-2n[nH]c1-c1ccc(N2CCNCC2)cc1` (as salt: TFA) [Example CCXV, 3-(4-piperazinophenyl)-5-(morpholinoacetamido)indeno[1,2-c]pyrazol-4-one] the melting point was 259 °C. `NCC1CCN(CC(=O)Nc2cccc3c2C(=O)c2c-3n[nH]c2-c2ccc(N3CCNCC3)cc2)CC1` (as salt: TFA) [Example CCXVII, 3-(4-piperazinophenyl)-5-(4-(aminomethyl)piperidinoacetamido)indeno[1,2-c]pyrazol-4-one] showed a melting point of 239 °C. For `CN1CCN(c2ccc(-c3[nH]nc4c3C(=O)c3c(NC(=O)NN5CCOCC5)cccc3-4)cc2)CC1` (as salt: TFA) [Example CCXVIII, 3-(4-(4-methylpiperazino)phenyl)-5-(morpholinocarbamoylamino)indeno[1,2-c]pyrazol-4-one], the melting point was 245 °C. In the case of `CC(C)N1CCN(c2ccc(-c3[nH]nc4c3C(=O)c3c(NC(=O)NN5CCOCC5)cccc3-4)cc2)CC1` (as salt: TFA) [Example CCXX, 3-(4-(4-isopropylpiperazino)phenyl)-5-(morpholinocarbamoylamino)indeno[1,2-c]pyrazol-4-one], the melting point is reported as 253 °C. `CN(C)NC(=O)Nc1cccc2c1C(=O)c1c-2n[nH]c1-c1ccc(N2CCNCC2)cc1` (as salt: TFA) [Example CCXXI, 3-(4-piperazinophenyl)-5-((N,N-dimethylamino)carbamoylamino)indeno[1,2-c]pyrazol-4-one] gave a melting point of 238 °C. `CN1CCN(c2ccc(-c3[nH]nc4c3C(=O)c3c(NC(=O)NN(C)C)cccc3-4)cc2)CC1` (as salt: TFA) [Example CCXXII, 3-(4-(4-methylpiperazino)phenyl)-5-((N,N-dimethylamino)carbamoylamino)indeno[1,2-c]pyrazol-4-one] gave a melting point of 192 °C. Molecule `CN1CCN(NC(=O)Nc2cccc3c2C(=O)c2c-3n[nH]c2-c2ccc(N3CCNCC3)cc2)CC1` (as salt: TFA) [Example CCXXIII, 3-(4-piperazinophenyl)-5-((4-methylpiperazino)carbamoylamino)indeno[1,2-c]pyrazol-4-one] has a melting point of 254 °C. `CN1CCN(NC(=O)Nc2cccc3c2C(=O)c2c-3n[nH]c2-c2ccc(N3CCN(C)CC3)cc2)CC1` (as salt: TFA) [Example CCXXIV, 3-(4-(4-methylpiperazino)phenyl)-5-((4-methylpiperazino)carbamoylamino)indeno[1,2-c]pyrazol-4-one] gave a melting point of 293 °C. `CC(C)N1CCN(c2ccc(-c3[nH]nc4c3C(=O)c3c(NC(=O)NN5CCN(C)CC5)cccc3-4)cc2)CC1` (as salt: TFA) [Example CCXXVI, 3-(4-(4-isopropylpiperazino)phenyl)-5-((4-methylpiperazino)carbamoylamino)indeno[1,2-c]pyrazol-4-one] gave a melting point of 272 °C. With `CC1CCCC(C)N1NC(=O)Nc1cccc2c1C(=O)c1c-2n[nH]c1-c1ccc(N2CCNCC2)cc1` (stereo not shown) (as salt: TFA) [Example CCXXVII, 3-(4-piperazinophenyl)-5-((2,6-dimethylpiperidino)carbamoylamino)indeno[1,2-c]pyrazol-4-one] the melting point was 270 °C. `O=C(Nc1cccc2c1C(=O)c1c-2n[nH]c1-c1ccc(N2CCNCC2)cc1)NN1CCN(CCO)CC1` (as salt: TFA) [Example CCXXVIII, 3-(4-piperazinophenyl)-5-((4-(2-hydroxyethyl)piperazino)carbamoylamino)indeno[1,2-c]pyrazol-4-one] gave a melting point of 279 °C. `COC(C)(C)[C@H]1CCCN1NC(=O)Nc1cccc2c1C(=O)c1c-2n[nH]c1-c1ccc(N2CCNCC2)cc1` (as salt: TFA) [Example CCXXXI, 3-(4-piperazinophenyl)-5-((2(R)-(1-methoxy-1-methylethyl)pyrrolidino)carbamoylamino)indeno[1,2-c]pyrazol-4-one] showed a melting point of 221 °C. In the case of `COC(C)(C)[C@@H]1CCCN1NC(=O)Nc1cccc2c1C(=O)c1c-2n[nH]c1-c1ccc(N2CCNCC2)cc1` (as salt: TFA) [Example CCXXXII, 3-(4-piperazinophenyl)-5-((2(S)-(1-methoxy-1-methylethyl)pyrrolidino)carbamoylamino)indeno[1,2-c]pyrazol-4-one], the melting point is reported as 218 °C. Molecule `O=C(Nc1cccc2c1C(=O)c1c-2n[nH]c1-c1ccc(N2CCNCC2)cc1)NN1CCC[C@@H]1CO` (as salt: TFA) [Example CCXXXIII, 3-(4-piperazinophenyl)-5-((2(R)-(hydroxymethyl)pyrrolidino)carbamoylamino)indeno[1,2-c]pyrazol-4-one] has a melting point of 193 °C. `O=C(Nc1cccc2c1C(=O)c1c-2n[nH]c1-c1ccc(N2CCNCC2)cc1)NN1CCC[C@H]1CO` (as salt: TFA) [Example CCXXXIV, 3-(4-piperazinophenyl)-5-((2(S)-(hydroxymethyl)pyrrolidino)carbamoylamino)indeno[1,2-c]pyrazol-4-one] showed a melting point of 190 °C. For `O=C(Nc1cccc2c1C(=O)c1c-2n[nH]c1-c1ccc(N2CCNCC2)cc1)NN1CCC[C@@H]1COCc1ccccc1` (as salt: TFA) [Example CCXXXV, 3-(4-piperazinophenyl)-5-((2(R)-(benzyloxymethyl)pyrrolidino)carbamoylamino)indeno[1,2-c]pyrazol-4-one], the melting point was 207 °C.
